pEC50, pIC50: −log10 of the molar value.
Legend:
[1] = test system: VSV-G pseudotyped HIV-1GFP; assay: VSV-G pseudotyped HIV-1GFP infectivity assay in THP-1 cells; type: cell-based; conditions: for Infection (mean % HIV-1GFP+ cells): 100 μM, THP-1, MOI 1, 72 h, DMSO 8.16%; for Fold decrease in infection: 50 μM, THP-1, 72 h; for Infection levels at lower concentrations: below 50 μM (12.5, 25 μM)
[2] = test system: α-glucosidase; assay: α-glucosidase inhibitor assay (colorimetric kit); type: biochemical
Method: (§1) α-glucosidase and α-amylase inhibitor screening kits (colorimetric) were purchased from Biovision (Milpitas, CA, USA). In total, 10 mM of stock solution of all the tested compounds were dissolved in DMSO and serially diluted in the assay buffer of each kit. Experiments were performed according to the manufacturer’s protocol. Briefly, for the α-glucosidase assay, 10 µL of serially diluted compounds at the corresponding concentration ([…]–1 mM) were added into designated wells of clear 96 well-plates. Subsequently, 10 µL of the α-glycosidase enzyme was added to each well and volume was adjusted to 80 µL and plates were incubated for 15-min at room temperature in dark condition. Then, 20 µL of α-glycosidase substrate mixture was added in all wells and kinetic of reaction was measured at OD: 410 nm for 60 min at 2 min intervals by using a multiplate reader, Biotek instrument, Inc., Canada. Enzyme control (no inhibitor), background control (no enzyme), solvent control (DMSO) and inhibitor control (acarbose) were included in the plates. For the α-amylase assay, 50 µL of serially diluted compounds (3.25 µM to 500 µM) were added into a clear 96-well plate with 50 µL of assay buffer and 50 µL of α-amylase enzymes. The plate was incubated at room temperature in the dark for 10 min. Then 50 µL of the α-amylase substrate was added in all wells. The kinetic of reaction was measured at OD:410 nm for 26 min at intervals of 2 min by using a multiplate reader. Control α-amylase inhibitor was provided by the manufacturer, enzyme control, background control and solvent control were all included. Enzyme inhibition was calculated according to Zhang et al. (2014). In summary, ODs were plotted according to the time for each sample. Areas under the curve (AUC) were calculated, and enzyme inhibition was measured as 100−(AUCcompound/AUCenzyme) × 100 for each dilution of each compound.

[3] = test system: acetylcholinesterase (AChE); assay: Anti-acetylcholinesterase assay (Ellman); type: biochemical
Method: In vitro acetylcholinesterase (AChE) activity was assessed exactly as in Ka et al. (2020) following Ellman’s colorimetric protocol with the Acetylcholinesterase Assay Kit (Abcam Inc., Boston, MA, USA). Briefly, 50 µL serial dilutions (3.9–500 µM) of compounds 1–5 were prepared in Tris-HCl pH = 7.9 buffer into designated wells of a clear 96 well-plate. A total of 5 µL of DTNB was added in each well, then 50 µL of diluted acetycholinesterase was added. The plate was incubated for 10 min in the dark. Matched concentrations of DMSO were used as a negative control. Kinetic of reaction was measured in a multiple plate reader at 410 nm in kinetic mode for 40 min at room temperature. The percentage of anti-AChE inhibition was calculated according to the following formula: 100 − [((E − S)/E) × 100], where E is the activity of the enzyme with matched concentrations of DMSO and S is the activity of the enzyme with the test sample.

[4] = in vitro; conditions: human, HaCaT immortalized keratinocytes
From the text: (§2) HeLa cervical cancer cells (CCL-2) and A431 (ATCC-CRL1555) human epidermoid carcinoma cells were from American Type Culture Co [...

[5] = in vitro; conditions: human, A431 epidermoid carcinoma cells
From the text: as §2

[6] = in vitro; conditions: human; for IC50 at 24 h: HeLa cervical cancer cells
From the text: as §2

[7] = test system: THP-1 cells; assay: Propidium iodide cytotoxicity in THP-1 cells; conditions: 72 h; for PI+ cells: 100 μM; for Dead cells: all concentrations tested (12.5-100 μM)
[8] = test system: HaCaT, HeLa and A431 cells; assay: γ-H2AX foci immunofluorescence (DNA damage); type: cell-based, human; conditions: 10 μM, 24 h, all tested cell lines
Method: Cells were seeded in 35 mm dishes on micro cover glasses (BDH) and treated with the metabolite at a concentration of 10 μM. […] Cells were permeabilized with ice-cold 0.5% Triton X-100 for 5 min and then washed with PBS. Cells were then incubated with phospho-histone H2A.X (Ser139) antibody (from Cell Signaling Technologies 9542, Boston, MA, USA) for 1 h, followed by DAPI (Sigma-Aldrich) for 3 min and washed with PBS/0.05% Tween. Coverslip was mounted with Ibidi mounting medium (Ibidi GmbH, Martinsried, Germany). Images were taken with a Zeiss confocal laser-scanning microscope Axio Observer (Zeiss, Ostfilden, Germany) (scale bar, 20 μm). A 40× objective was used and image analysis was performed using Fiji ImageJ open source software project (https://imagej.net/imaging/). All the images were taken with the same setting.

[9] = test system: HaCaT cells; assay: DCFDA assay (ROS); type: cell-based, human; conditions: for Production of reactive oxygen species (ROS): 10 µM, HaCaT cells
Method: N-p-coumaroyltyramine antioxidant activity was measured using 2′−7′dichlorofluorescein diacetate (DCFDA), a non-fluorescent compound permeable to the cell membrane, which can be oxidized by reactive oxygen species (ROS) giving a fluorescent compound. […] The medium was removed after 4 h and 1 mM (3%) H2O2 was added for 45 min, 1.5 and 2.0 h. Cells were washed with PBS and a fresh medium with DCFDA ([…]) was added for 45 min, then DCFDA was removed by washing in PBS and the cells were harvested. The measurement of ROS was obtained using the Sinergy H4 microplate reader (Gen5 2.07, Thermofisher, Waltham MA, USA). The fluorescence emitted from the cells treated with DCFDA was compared to the untreated cells. Trolox was used as a positive control. Values shown in the plot are mean ± SD of sixfold determinations. The mean and the standard deviation were calculated on biological triplicates using GraphPad Prism 8.0.2 software (GraphPad, San Diego, CA, USA).

[10] = test system: HaCaT immortalized keratinocytes; conditions: for Effect on HaCaT cell viability: incubation extended for 48 h, 0.5 to 10 μM
From the text: as §2

[11] = test system: ovarian carcinoma, melanoma and non-small lung cancer cells; parameters: method as in PMID 23659371; conditions: cited from earlier work
[12] = biological target: α-amylase; assay: α-amylase inhibitor assay (colorimetric kit); type: biochemical; conditions: concentrations 3.9-250 μM, 26 min kinetics
Method: as §1, with “For the α-amylase assay, 50 µL of serially diluted compounds (3.25 µM to 500 µM) were added into a clear 96-well plate with 50 µL of assay buffer and 50 µL of α-amylase enzymes. The plate was incubated at room temperature in the dark for 10 min. Then 50 µL of the α-amylase substrate was added in all wells.” left out, “Control α-amylase inhibitor was provided by the manufacturer, enzyme control, background control and solvent control were all included.” left out, “In summary, ODs were plotted according to the time for each sample.” left out

[13] = test system: A431 human epidermoid carcinoma cells; conditions: 0.5 to 10 μM, 24 and 48 h
From the text: as §2

[14] = test system: HeLa cervical cancer cells; conditions: 0.5 to 10 μM, 24 and 48 h
From the text: as §2

[15] = test system: Dengue virus (DENV); parameters: method as in PMID 34152811; conditions: read-out: DENV replication EC50; cited from earlier work
[16] = test system: Zika virus (ZIKV); parameters: method as in PMID 34152811; conditions: read-out: ZIKV replication EC50; cited from earlier work
[17] = test system: human immunodeficiency virus type 1 (HIV-1); parameters: method as in PMID 34152811; conditions: cited from earlier work
[18] = increasing inhibition from 15.6 μM to 250 μM

| Compound | Infection (mean % HIV-1GFP+ cells) [1] | α-glucosidase inhibition ([2]; 1 mM) | AChE inhibition [3, 18] | IC50 at 24 h [4] | IC50 at 24 h [5] | IC50 at 24 h [6] | PI+ cells [7] | Nuclear γH2AX foci [8] | Production of reactive oxygen species (ROS) [9] | Fold decrease in infection [1] | Infection levels at lower concentrations [1] | Effect on HaCaT cell viability [10] | Dead cells [7] | further results |
| --- | --- | --- | --- | --- | --- | --- | --- | --- | --- | --- | --- | --- | --- | --- |
| COc1cc2c(c(OC)c1OC)C(=O)C(Cc1ccc(O)cc1)CO2 (centres unmarked) [Compound 1, 5,6,7-trimethoxy-3-(4-hydroxybenzyl)chroman-4-one] | 3.78% | 50% | up to 20% | > 10 µM | 6 µM | 1 µM | 8.74% | – | – | – | – | – | – | viability at 48 h, 5 µM ([6]; HeLa cervical cancer cells (CCL-2)): < 20% |
| COc1cc2c(c(OC)c1OC)C(=O)C(O)(Cc1ccc(O)cc1)CO2 (centres unmarked) [Compound 2, 3-hydroxy-5,6,7-trimethoxy-3-(4-hydroxybenzyl)chroman-4-one] | 4.03% | 50% | up to 20% | > 10 µM | > 10 µM | 4 µM | 4.15% | – | – | – | – | – | – | – |
| COc1ccc(CC2(O)COc3cc(OC)c(OC)c(OC)c3C2=O)cc1 (centres unmarked) [Compound 3, 3-hydroxy-5,6,7-trimethoxy-3-(4-methoxybenzyl)chroman-4-one] | 2.51% | 50% | – | > 10 µM | 4 µM | 4.5 µM | – | remarkable increase | did not increase | 2.0 fold | decreased infection levels | significant reduction | 30–40% | AChE enzyme activity blocked ([3]; concentrations increased from 3.9 to 500 μM): 15–30%; Antiproliferative activity [11]: submicromolar concentration |
| COc1ccc(CC2COc3cc(OC)c(OC)c(OC)c3C2=O)cc1 (centres unmarked) [Compound 4, 5,6,7-trimethoxy-3-(4-methoxybenzyl)chroman-4-one] | 2.76% | – | up to 20% | > 10 µM | 6.5 µM | 5.5 µM | – | remarkable increase | did not increase | 2.4 fold | decreased infection levels | significant reduction | 30–40% | – |
| O=C(/C=C/c1ccc(O)cc1)NCCc1ccc(O)cc1 [Compound 5, (E)-N-(4-hydroxyphenethyl)-3-(4-hydroxyphenyl)acrylamide] | 2.12% | – | – | – | – | – | 5.97% | – | – | 1.6 fold | – | – | – | Antioxidant activity: ROS induced by H2O2 ([9]; 10 and 100 µM, 4 h pre-treatment, H2O2 1 mM, Trolox positive control): antioxidant activity comparable to Trolox; α-glucosidase inhibition ([2]; all concentrations tested, 0.01-1000 μM): nearly completely inhibited; pIC50 [12]: 4.40; AChE inhibition ([3]; high concentrations): weakly inhibited; Effect on HaCaT cell viability at the lower concentrations ([10]; 0.5 and 1 μM): significantly increase HaCaT cell viability; Cytotoxic activity IC50, HaCaT ([10]; MTT, 24 h of incubation): Not detected; Toxicity on A431 cancer cells [13]: toxic; Toxicity on HeLa cancer cells [14]: toxic |
| COc1cc2c(cc1O)CN(C)C[C@H]2c1ccc(O)cc1 [cherylline] | – | – | – | – | – | – | – | – | – | – | – | – | – | pEC50 [15]: 5.06; pEC50 [16]: 4.69; Effect on HIV-1 infection [17]: ineffective |

Reference: article PMC8466962, “Isolation and Biological Characterization of Homoisoflavanoids and the Alkylamide N-p-Coumaroyltyramine from Crinum biflorum Rottb., an Amaryllidaceae Species Collected in Senegal” (Biomolecules, 2021)
